Each block holds one compound with its values, some of them ahead of it.
Experiments:
WT full length PAICS = WT full length PAICS (Homo sapiens (Human), UniProt P22234); assay: Biochemical assay to measure PAICS activity (Transcreener ADP2 FI); settings: SAICAR synthetase reaction, ADP detection, 30 min pre-incubation
From the text: Biochemical Assay to Measure PAICS Activity
The biochemical assay was used to measure PAICS SAICAR synthetase-mediated conversion of CAIR, aspartic acid and ATP to SAICAR, ADP and inorganic phosphate (Pi), post-AIR/CAIR equilibration (see FIG. 3). This was achieved by detecting the ADP generated during the reaction, using Bellbrook Lab's Transcreener ADP^2 FI assay. An increase in the fluorescence intensity is directly proportional to the amount of PAICS activity.
The Transcreener ADP^2 FI assay is a homogeneous competitive displacement fluorescence intensity assay which uses direct immunodetection of ADP. Displacement of the tracer by ADP causes an increase in the fluorescence at excitation 590 nm and emission 617 nm (FIG. 3).
5 μl WT full length PAICS (final assay concentration, fac, 2.5 nM) in basic buffer, added to black, non-binding, 384-well plates (Corning #3575), columns 1 to 22. 5 μl basic buffer was added to columns 23+24 (negative control). PAICS stock at 31.9 μM from the PI's lab (Steve Firestine). Basic buffer contained 50 mM Tris-HCl pH8 and 0.5 mM EDTA, fac.
1 μl compound in 100% DMSO added per well, or 1 μl 100% DMSO to positive controls (columns 1+2) and negative controls (columns 23+24). Final assay top concentration of compound either 1 mM or 30-μM, serially diluted with half-log dilutions across the plate in duplicate (one 10-point concentration response curve across wells 3 to 12, another across 13 to 22). Compounds pre-incubated with PAICS enzyme for 30 mins at RT. 2 μl CAIR added (fac 10 μM) in basic buffer plus 25 mM MgCl2 and 50 mM KHCO3 fac to all wells. CAIR stock 50 mM from Steve Firestine's lab. 1 hr RT incubation for AIR-CAIR equilibration. NB: ˜50% CAIR is decarboxylated during equilibration therefore 5 μM remains for the synthetase reaction.
2 μl ATP/aspartic acid added (fac 30 μM/180 μM) in reaction buffer to all wells. 30 mins RT incubation for appropriate level of ATP turnover. Reaction buffer contained basic buffer plus 10 mM DTT, 0.01% BSA and 0.01% Brij 35, fac.
10 μl ADP detection reagent added to all wells (as per instructions, Transcreener ADP^2 FI kit, BellBrook Labs #3013-10K). Incubation for 1 h at RT to allow antibody equilibration. Fluorescence intensity determined using a Tecan Safire2 (excitation at 590 nm, emission at 617 nm).

[1] = tested on: LM2 and MDA-MB-231 breast cancer cell lines; assay: PAICS 2D cell proliferation assay (CellTiter-Glo viability, 72 h); assay type: cell-based; settings: Homo sapiens; 72 h incubation; cell line not given
Method: PAICS 2D Cell Proliferation Assay
Frozen cryovial stocks of LM2 and MDA-MB-231 breast cancer cell lines were thawed and cultured in 4.5 g/L glucose DMEM (31966-047, Invitrogen) supplemented with 10% Fetal Bovine Serum (10500-064, Invitrogen) until confluent in a T175 flask. Cells were incubated at 37° C. with 5% CO2 in a humidified incubator.
Cells were collected from T175 flasks by washing with PBS (10010-056, Invitrogen) and dissociated using Accutase (A6964, Sigma Aldrich). This was followed by centrifuging (1200 rpm, 5 min) and resuspending the cells in 10 ml of media containing 1% penicillin/streptomycin (15140-122, Invitrogen). Cells were counted by trypan blue exclusion method using an automated cell counter (Cellometer) and diluted to a concentration of 40,000/ml. 1000 cells were then seeded into 384-well white-walled plates (Corning, 3707) in a volume of 25 μl. Plates were Incubated overnight at 37° C. with 5% CO2.
After 24 hours, PAICS compounds were added onto the assay plates using an HP D300 Digital Dispenser (Hewlett Packard). 10 mM stocks were used and dispensed as a 10 point concentration response curve (CRC) ½ log dilution series with a final top concentration of 100 μM. Controls were added onto each plate: positive controls included Staurosporine CRC (100 μM stock dispensed as a 10 point CRC ½ log dilution series with a final top concentration of 1 μM) and PAICS compound MRT00211919 (10 mM stock dispensed as a 10 point CRC ½ log dilution series with a final top concentration of 100 μM); a high control of Staurosporine (0.1 μM (LM2), 0.316 μM (MDA-MB-231) FAC) and a low control of media containing 1% DMSO. A final concentration of 1% DMSO was then added across the plates for normalisation. Following compound addition, assay plates were incubated for 72 hours at 37° C. with 5% CO2.
Day 5—Cytotoxicity and Cell Viability Assays
After 72 h incubation, dead and viable cells were measured in each assay plate. Cytotoxicity was assessed through fluorescent DNA staining using the CellTox™ Green Cytotoxicity Assay kit (G8743, Promega) following the manufacturer's multiplexing protocol. Impaired cell membrane integrity results in the access of dye to stain DNA allowing quantification of dead cells. Cell viability was determined following ATP quantification using the CellTiter-Glo® Luminescent Cell Viability Assay kit (G7572, Promega) following the manufacturer's protocol. ATP released from lysed cells allowed for the generation of a signal proportional to the number of cells present in the well. All endpoint reads were performed using the PheraSTAR Plus (BMG Labtech). Data is expressed as % viable cells and % dead cells against controls (mean±SEM of duplicate curves).

Sequence of WT full length PAICS (P22234 whole entry): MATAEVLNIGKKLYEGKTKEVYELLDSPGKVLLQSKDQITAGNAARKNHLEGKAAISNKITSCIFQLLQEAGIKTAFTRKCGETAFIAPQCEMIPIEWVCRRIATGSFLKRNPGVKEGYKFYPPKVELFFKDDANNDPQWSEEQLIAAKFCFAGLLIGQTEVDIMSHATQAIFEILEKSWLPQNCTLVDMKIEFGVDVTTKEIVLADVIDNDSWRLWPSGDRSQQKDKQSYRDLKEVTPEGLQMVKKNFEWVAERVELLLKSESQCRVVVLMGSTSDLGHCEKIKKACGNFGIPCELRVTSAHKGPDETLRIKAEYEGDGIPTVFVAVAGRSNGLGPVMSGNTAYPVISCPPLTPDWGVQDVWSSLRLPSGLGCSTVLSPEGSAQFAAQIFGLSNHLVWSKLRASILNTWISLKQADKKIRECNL

SMILES: Nc1nc(C(=O)Nc2cc(N3CCN(C(=O)OCC4CNC4)CC3)ccc2Cl)co1 [Example 19, Azetidin-3-ylmethyl 4-(3-(2-aminooxazole-4-carboxamido)-4-chlorophenyl) piperazine-1-carboxylate]
IC50 (WT full length PAICS): > 100 nM | EC50 [1]: 500 to 1000 nM

SMILES: CN1CC(COC(=O)N2CCN(c3ccc(Cl)c(NC(=O)c4coc(N)n4)c3)CC2)C1 [Example 20, (1-Methylazetidin-3-yl) methyl 4-(3-(2-aminooxazole-4-carboxamido)-4-chlorophenyl) piperazine-1-carboxylate]
IC50 (WT full length PAICS): 10 to 25 nM | EC50 [1]: 500 to 1000 nM

SMILES: Nc1nc(C(=O)Nc2cc(N3CCN(C(=O)OCCNC4CC4)CC3)ccc2Br)co1 [Example 21, 2-(Cyclopropylamino)ethyl 4-(3-{[(2-amino-1,3-oxazol-4-yl)carbonyl]amino}-4-bromophenyl)piperazine-1-carboxylate]
IC50 (WT full length PAICS): 10 to 25 nM | EC50 [1]: 100 to 250 nM

SMILES: Nc1nc(C(=O)Nc2cc(N3CCN(C(=O)OC4CNC4)CC3)ccc2Cl)co1 [Example 22, Azetidin-3-yl 4-(3-{[(2-amino-1,3-oxazol-4-yl)carbonyl]amino}-4-chlorophenyl)piperazine-1-carboxylate]
IC50 (WT full length PAICS): > 100 nM | EC50 [1]: 100 to 250 nM

SMILES: CNCCOC(=O)N1CCN(c2ccc(Br)c(NC(=O)c3coc(N)n3)c2)CC1 [Example 25, 2-(Methylamino)ethyl 4-(3-(2-aminooxazole-4-carboxamido)-4-bromophenyl)piperazine-1-carboxylate]
IC50 (WT full length PAICS): 10 to 25 nM | EC50 [1]: 100 to 250 nM

SMILES: CN1CC(OC(=O)N2CCN(c3ccc(Br)c(NC(=O)c4coc(N)n4)c3)CC2)C1 [Example 28, 1-Methylazetidin-3-yl 4-(3-{[(2-amino-1,3-oxazol-4-yl)carbonyl]amino}-4-bromophenyl)piperazine-1-carboxylate]
IC50 (WT full length PAICS): 10 to 25 nM | EC50 [1]: 250 to 500 nM

SMILES: CN(C)CCCOC(=O)N1CCN(c2ccc(Cl)c(NC(=O)c3coc(N)n3)c2)CC1 [Example 29, 3-(Dimethylamino)propyl 4-(3-{[(2-amino-1,3-oxazol-4-yl)carbonyl]amino}-4-chlorophenyl)piperazine-1-carboxylate]
IC50 (WT full length PAICS): 25 to 100 nM | EC50 [1]: 500 to 1000 nM

SMILES: CN1CCC(OC(=O)N2CCN(c3ccc(Cl)c(NC(=O)c4coc(N)n4)c3)CC2)C1 (centres unmarked) [Example 30, 1-Methylpyrrolidin-3-yl 4-(3-{[(2-amino-1,3-oxazol-4-yl)carbonyl]amino}-4-chlorophenyl)piperazine-1-carboxylate]
IC50 (WT full length PAICS): > 100 nM | EC50 [1]: 500 to 1000 nM

SMILES: CNCCOC(=O)N1CCN(c2ccc(Cl)c(NC(=O)c3coc(N)n3)c2)CC1 [Example 31, 2-(Methylamino)ethyl 4-(3-{[(2-amino-1,3-oxazol-4-yl)carbonyl]amino}4-chlorophenyl)piperazine-1-carboxylate]
IC50 (WT full length PAICS): 25 to 100 nM | EC50 [1]: 500 to 1000 nM

SMILES: Nc1nc(C(=O)Nc2cc(N3CCN(C(=O)OC4CCNC4)CC3)ccc2Cl)co1 (centres unmarked) [Example 32, Pyrrolidin-3-yl 4-(3-{[(2-amino-1,3-oxazol-4-yl)carbonyl]amino}-4-chlorophenyl)piperazine-1-carboxylate]
IC50 (WT full length PAICS): 25 to 100 nM | EC50 [1]: 500 to 1000 nM

SMILES: CN(C)CCOC(=O)N1CCN(c2ccc(Cl)c(NC(=O)c3coc(N)n3)c2)CC1 [Example 33, 2-(Dimethylamino)ethyl 4-(3-{[(2-amino-1,3-oxazol-4-yl)carbonyl]amino}-4-chlorophenyl)piperazine-1-carboxylate]
IC50 (WT full length PAICS): 25 to 100 nM | EC50 [1]: 500 to 1000 nM

Now from value to compound:

IC50 (WT full length PAICS): 25 to 100 nM | EC50 [1]: 500 to 1000 nM
SMILES: CN1CC(OC(=O)N2CCN(c3ccc(Cl)c(NC(=O)c4coc(N)n4)c3)CC2)C1 [Example 34, 1-Methylazetidin-3-yl 4-(3-{[(2-amino-1,3-oxazol-4-yl)carbonyl]amino}-4-chlorophenyl)piperazine-1-carboxylate]

IC50 (WT full length PAICS): 25 to 100 nM | EC50 [1]: 500 to 1000 nM
SMILES: Nc1nc(C(=O)Nc2cc(N3CCN(C(=O)OCCNC4CC4)CC3)ccc2Cl)co1 [Example 35, 2-(Cyclopropylamino)ethyl 4-(3-{[(2-amino-1,3-oxazol-4-yl)carbonyl]amino}-4-chlorophenyl)piperazine-1-carboxylate]

IC50 (WT full length PAICS): 10 to 25 nM | EC50 [1]: 500 to 1000 nM
SMILES: CN1CC(CN2CCN(c3ccc(Br)c(NC(=O)c4coc(N)n4)c3)CC2=O)C1 [Example 44]

IC50 (WT full length PAICS): 10 to 25 nM | EC50 [1]: 250 to 500 nM
SMILES: CN(C)CCN1CCN(c2ccc(Br)c(NC(=O)c3coc(N)n3)c2)CC1=O [Example 45]

IC50 (WT full length PAICS): > 100 nM | EC50 [1]: 500 to 1000 nM
SMILES: CN(C)CCCN1CCN(c2ccc(Cl)c(NC(=O)c3coc(N)n3)c2)CC1=O [Example 46, 2-Amino-N-(2-chloro-5-{4-[3-(dimethylamino)propyl]-3-oxopiperazin-1-yl}phenyl)-1,3-oxazole-4-carboxamide]

IC50 (WT full length PAICS): 25 to 100 nM | EC50 [1]: 500 to 1000 nM
SMILES: NCCS(=O)(=O)N1CCN(c2ccc(Cl)c(NC(=O)c3coc(N)n3)c2)CC1 [Example 53, 2-Amino-N-(5-(4-(2-aminoethylsulfonyl)piperazin-1-yl)-2-chlorophenyl) oxazole-4-carboxamide]

IC50 (WT full length PAICS): < 10 nM | EC50 [1]: 100 to 250 nM
SMILES: CN(C)CCS(=O)(=O)N1CCN(c2ccc(Br)c(NC(=O)c3coc(N)n3)c2)CC1 [Example 54, 2-Amino-N-[2-bromo-5-(4-{[2-(dimethylamino)ethyl]sulfonyl}piperazin-1-yl)phenyl]-1,3-oxazole-4-carboxamide]

IC50 (WT full length PAICS): 10 to 25 nM | EC50 [1]: 250 to 500 nM
SMILES: CNCCS(=O)(=O)N1CCN(c2ccc(Cl)c(NC(=O)c3coc(N)n3)c2)CC1 [Example 56, 2-Amino-N-[2-chloro-5-(4-{[2-(methylamino)ethyl]sulfonyl}piperazin-1-yl)phenyl]-1,3-oxazole-4-carboxamide]

IC50 (WT full length PAICS): 10 to 25 nM | EC50 [1]: 500 to 1000 nM
SMILES: CN(C)CCS(=O)(=O)N1CCN(c2ccc(Cl)c(NC(=O)c3coc(N)n3)c2)CC1 [Example 57, 2-Amino-N-[2-chloro-5-(4-{[2-(dimethylamino)ethyl]sulfonyl}piperazin-1-yl)phenyl]-1,3-oxazole-4-carboxamide]

IC50 (WT full length PAICS): 25 to 100 nM | EC50 [1]: 500 to 1000 nM
SMILES: Nc1nc(C(=O)Nc2cc(N3CCN(S(=O)(=O)CCNC4CC4)CC3)ccc2Cl)co1 [Example 58, 2-Amino-N-[2-chloro-5-(4-{[2-(cyclopropylamino)ethyl]sulfonyl}piperazin-1-yl)phenyl]-1,3-oxazole-4-carboxamide]

IC50 (WT full length PAICS): 10 to 25 nM | EC50 [1]: 250 to 500 nM
SMILES: CN1CCN(CCS(=O)(=O)N2CCN(c3ccc(Cl)c(NC(=O)c4coc(N)n4)c3)CC2)CC1 [Example 59, 2-Amino-N-[2-chloro-5-(4-{[2-(4-methylpiperazin-1-yl)ethyl]sulfonyl}piperazin-1-yl)phenyl]-1,3-oxazole-4-carboxamide]

— patent US10961233B2 (LIFEARC, priority 2016, dated 2021)
